# Where two headings read alike, the source gives them in different places.
# How the values were obtained:
# [1] = target: c-Raf (Homo sapiens, UniProt P04049); assay: Luciferase-coupled chemiluminescence kinase assay (ATP consumption), c-Raf; format: biochemical
# Method in brief: (§1)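 Compound is first mixed with […] Raf enzyme in 20 mM Tris pH 7.5 containing 10 mM MgCl2, 0.03% TX-100 and 1 mM DTT (30 min, room temperature). ATP then starts a 3 h reaction, and unconsumed ATP is detected by chemiluminescence.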
# [2] = target: B-Raf (Homo sapiens, UniProt P15056); assay: Luciferase-coupled chemiluminescence kinase assay (ATP consumption), B-Raf; format: biochemical
# B-Raf, sequence (P15056 whole entry): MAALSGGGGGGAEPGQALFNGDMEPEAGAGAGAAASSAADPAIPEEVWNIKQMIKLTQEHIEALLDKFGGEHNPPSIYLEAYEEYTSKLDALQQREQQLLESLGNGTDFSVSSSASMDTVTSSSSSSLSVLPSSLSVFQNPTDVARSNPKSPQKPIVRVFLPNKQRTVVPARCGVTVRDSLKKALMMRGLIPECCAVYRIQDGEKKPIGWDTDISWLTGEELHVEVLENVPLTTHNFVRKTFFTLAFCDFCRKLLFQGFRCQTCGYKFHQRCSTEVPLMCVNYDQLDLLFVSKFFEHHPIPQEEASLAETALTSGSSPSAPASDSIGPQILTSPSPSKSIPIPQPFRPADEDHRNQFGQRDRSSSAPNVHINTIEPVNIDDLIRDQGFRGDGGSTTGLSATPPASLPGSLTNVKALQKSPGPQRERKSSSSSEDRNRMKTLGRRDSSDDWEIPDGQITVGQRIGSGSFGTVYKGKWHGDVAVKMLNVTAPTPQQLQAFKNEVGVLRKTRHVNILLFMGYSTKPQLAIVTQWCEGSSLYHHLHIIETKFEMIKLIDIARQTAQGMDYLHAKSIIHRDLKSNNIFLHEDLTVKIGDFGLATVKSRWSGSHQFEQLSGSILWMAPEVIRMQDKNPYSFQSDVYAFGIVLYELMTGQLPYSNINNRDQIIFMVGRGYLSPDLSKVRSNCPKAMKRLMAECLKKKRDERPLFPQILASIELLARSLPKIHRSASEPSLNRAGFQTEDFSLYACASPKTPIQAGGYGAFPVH
# Method in brief: as §1
# [3] = read-out: cRaf-1 (inhibition indicated as IC50)
# [4] = read-out: bRaf (inhibition indicated as IC50)
# c-Raf, sequence (P04049 whole entry): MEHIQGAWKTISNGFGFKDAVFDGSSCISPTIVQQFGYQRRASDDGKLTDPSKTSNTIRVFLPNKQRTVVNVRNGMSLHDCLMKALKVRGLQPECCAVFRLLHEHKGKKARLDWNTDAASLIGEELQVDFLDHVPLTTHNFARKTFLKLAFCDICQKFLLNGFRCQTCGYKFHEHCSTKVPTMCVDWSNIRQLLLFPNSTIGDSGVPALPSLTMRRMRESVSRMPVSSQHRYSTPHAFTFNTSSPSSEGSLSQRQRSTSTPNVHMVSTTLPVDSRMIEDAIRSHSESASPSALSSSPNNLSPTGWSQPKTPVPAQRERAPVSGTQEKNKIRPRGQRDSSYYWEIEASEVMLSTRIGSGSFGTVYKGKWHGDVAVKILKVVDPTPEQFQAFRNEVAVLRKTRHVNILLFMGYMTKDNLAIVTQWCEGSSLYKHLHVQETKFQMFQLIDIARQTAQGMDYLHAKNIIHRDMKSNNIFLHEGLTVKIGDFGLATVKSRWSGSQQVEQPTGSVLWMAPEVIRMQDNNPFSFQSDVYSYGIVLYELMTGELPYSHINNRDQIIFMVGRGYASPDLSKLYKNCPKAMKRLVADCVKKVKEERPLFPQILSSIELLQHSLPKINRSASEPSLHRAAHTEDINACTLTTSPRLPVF
SMILES,"IC50 [1, 3] [nM]","IC50 [2, 4] [nM]",IC50 ([1]; read-out: cRaf-1 IC50) [nM],IC50 ([2]; read-out: bRaf IC50) [nM]
"COC(=O)Nc1nc2ccc(C(=O)c3ccccc3C(=O)Nc3cc(Br)c(F)cc3F)cc2[nH]1 [Entry 410, methyl {6-[(2-{[(5-bromo-2,4-difluorophenyl)amino]carbonyl}phenyl)carbonyl]-1H-benzimidazol-2-yl}carbamate]",< 100,< 100,–,–
"CN1CCN(CCCOC(=O)Nc2nc3ccc(C4(O)c5ccccc5C(=O)N4c4ccc(F)cc4)cc3[nH]2)CC1 (centres unmarked) [Entry 280, 3-(4-methylpiperazin-1-yl)propyl {6-[2-(4-fluorophenyl)-1-hydroxy-3-oxo-2,3-dihydro-1H-isoindol-1-yl]-1H-benzimidazol-2-yl}carbamate]",< 100,< 100,–,–
"O=C(Nc1nc2ccc(C3(O)c4ccccc4C(=O)N3c3cccc(Cl)c3F)cc2[nH]1)C1CC1(F)F (centres unmarked) [Entry 329, N-{6-[2-(3-chloro-2-fluorophenyl)-1-hydroxy-3-oxo-2,3-dihydro-1H-isoindol-1-yl]-1H-benzimidazol-2-yl}-2,2-difluorocyclopropanecarboxamide]",< 100,< 100,–,–
"COC(=O)Nc1nc2cc(C3(O)c4ccccc4C(=O)N3Cc3ccccc3Cl)ccc2[nH]1 (centres unmarked) [Entry 129, methyl (5-{2-[(2-chlorophenyl)methyl]-1-hydroxy-3-oxo-2,3-dihydro-1H-isoindol-1-yl}-1H-benzimidazol-2-yl)carbamate]",–,–,< 100,100 to 1000
"CC(C)(CO)COC(=O)Nc1nc2cc(C3(O)c4ccccc4C(=O)N3Cc3ccccc3)ccc2[nH]1 (centres unmarked) [Entry 248, 3-hydroxy-2,2-dimethylpropyl {5-[1-hydroxy-3-oxo-2-(phenylmethyl)-2,3-dihydro-1H-isoindol-1-yl]-1H-benzimidazol-2-yl}carbamate]",–,–,100 to 1000,100 to 1000
"COC(=O)Nc1nc2cc(C3(O)c4ccccc4C(=O)N3c3cccc(OC)c3)ccc2[nH]1 (centres unmarked) [Entry 137, methyl (5-{1-hydroxy-2-[3-(methyloxy)phenyl]-3-oxo-2,3-dihydro-1H-isoindol-1-yl}-1H-benzimidazol-2-yl)carbamate]",–,–,< 100,< 100
"C#Cc1c(F)ccc(N2C(=O)c3ccccc3C2(O)c2ccc3[nH]c(NC(=O)OC)nc3c2)c1F (centres unmarked) [Entry 353, methyl {5-[2-(3-ethynyl-2,4-difluorophenyl)-1-hydroxy-3-oxo-2,3-dihydro-1H-isoindol-1-yl]-1H-benzimidazol-2-yl}carbamate]",< 100,< 100,–,–
"O=C1COc2ccc(C3(O)c4ccccc4C(=O)N3Cc3cccc(C(F)(F)F)c3)cc2N1 (centres unmarked) [Entry 53, 6-(1-hydroxy-3-oxo-2-{[3-(trifluoromethyl)phenyl]methyl}-2,3-dihydro-1H-isoindol-1-yl)-2H-1,4-benzoxazin-3(4H)-one]",–,–,≥ 10000,≥ 10000
"Cc1ccc(Cl)cc1N1C(=O)c2ccccc2C1(O)c1ccc2nc(Nc3ncccn3)[nH]c2c1 (centres unmarked) [Entry 375, 2-(5-chloro-2-methylphenyl)-3-hydroxy-3-[2-(pyrimidin-2-ylamino)-1H-benzimidazol-6-yl]-2,3-dihydro-1H-isoindol-1-one]",< 100,< 100,–,–
"CCOC(=O)Nc1nc2cc(C3(O)c4ccccc4C(=O)N3Cc3ccccc3)ccc2[nH]1 (centres unmarked) [Entry 96, ethyl {5-[1-hydroxy-3-oxo-2-(phenylmethyl)-2,3-dihydro-1H-isoindol-1-yl]-1H-benzimidazol-2-yl}carbamate]",–,–,≥ 10000,≥ 10000
"COC(=O)Nc1nc2cc(C3(O)c4ccccc4C(=O)N3c3cccc(OCc4ccccc4)c3)ccc2[nH]1 (centres unmarked) [Entry 221, methyl [5-(1-hydroxy-3-oxo-2-{3-[(phenylmethyl)oxy]phenyl}-2,3-dihydro-1H-isoindol-1-yl)-1H-benzimidazol-2-yl]carbamate]",–,–,< 100,100 to 1000
"O=C(NCc1ccccc1)Nc1nc2cc(C3(O)c4ccccc4C(=O)N3Cc3ccccc3)ccc2[nH]1 (centres unmarked) [Entry 169, N-{5-[1-hydroxy-3-oxo-2-(phenylmethyl)-2,3-dihydro-1H-isoindol-1-yl]-1H-benzimidazol-2-yl}-N′-(phenylmethyl)urea]",–,–,< 100,< 100
"COC(=O)Nc1nc2ccc(C(=O)c3ccccc3C(=O)Nc3cc(Cl)c(F)cc3F)cc2[nH]1 [Entry 411, methyl {6-[(2-{[(5-chloro-2,4-difluorophenyl)amino]carbonyl}phenyl)carbonyl]-1H-benzimidazol-2-yl}carbamate]",< 100,< 100,–,–
"O=C1COc2ccc(C3(O)c4ccccc4C(=O)N3c3cccc(Oc4ccccc4)c3)cc2N1 (centres unmarked) [Entry 79, 6-{1-hydroxy-3-oxo-2-[3-(phenyloxy)phenyl]-2,3-dihydro-1H-isoindol-1-yl}-2H-1,4-benzoxazin-3(4H)-one]",–,–,100 to 1000,1000 to 10000
"COC(=O)Nc1nc2cc(C3(O)c4ccccc4C(=O)N3c3ccccc3OC(F)(F)F)ccc2[nH]1 (centres unmarked) [Entry 183, methyl [5-(1-hydroxy-3-oxo-2-{2-[(trifluoromethyl)oxy]phenyl}-2,3-dihydro-1H-isoindol-1-yl)-1H-benzimidazol-2-yl]carbamate]",–,–,100 to 1000,< 100
"COC(=O)Nc1nc2cc(C3(O)c4ccccc4C(=O)N3S(=O)(=O)c3ccccc3)ccc2[nH]1 (centres unmarked) [Entry 268, methyl {5-[1-hydroxy-3-oxo-2-(phenylsulfonyl)-2,3-dihydro-1H-isoindol-1-yl]-1H-benzimidazol-2-yl}carbamate]",1000 to 10000,1000 to 10000,–,–
"COC(=O)Nc1nc2cc(C3(O)c4ccccc4C(=O)N3c3cccc(C(C)(C)C)c3)ccc2[nH]1 (centres unmarked) [Entry 346, methyl (5-{2-[3-(1,1-dimethylethyl)phenyl]-1-hydroxy-3-oxo-2,3-dihydro-1H-isoindol-1-yl}-1H-benzimidazol-2-yl)carbamate]",< 100,< 100,–,–
"O=C1COc2ccc(C3(O)c4ccccc4C(=O)N3c3cccc(F)c3)cc2N1 (centres unmarked) [Entry 39, 6-[2-(3-fluorophenyl)-1-hydroxy-3-oxo-2,3-dihydro-1H-isoindol-1-yl]-2H-1,4-benzoxazin-3(4H)-one]",–,–,100 to 1000,1000 to 10000
"COC(=O)Nc1nc2cc(C3(O)c4ccccc4C(=O)N3c3cccc(CN(C)C)c3)ccc2[nH]1 (centres unmarked) [Entry 235, methyl [5-(2-{3-[(dimethylamino)methyl]phenyl}-1-hydroxy-3-oxo-2,3-dihydro-1H-isoindol-1-yl)-1H-benzimidazol-2-yl]carbamate]",–,–,100 to 1000,100 to 1000
"COC(=O)Nc1nc2cc(C3(O)c4ccccc4C(=O)N3Cc3ccccc3Br)ccc2[nH]1 (centres unmarked) [Entry 130, methyl (5-{2-[(2-bromophenyl)methyl]-1-hydroxy-3-oxo-2,3-dihydro-1H-isoindol-1-yl}-1H-benzimidazol-2-yl)carbamate]",–,–,100 to 1000,100 to 1000
"O=C(Nc1nc2ccc(C3(O)c4ccccc4C(=O)N3c3cccc(Cl)c3F)cc2[nH]1)OCC1CC2CCC(C1)N2 (centres unmarked) [Entry 312, 8-azabicyclo[3.2.1]oct-3-ylmethyl {6-[2-(3-chloro-2-fluorophenyl)-1-hydroxy-3-oxo-2,3-dihydro-1H-isoindol-1-yl]-1H-benzimidazol-2-yl}carbamate]",< 100,< 100,–,–
"COC(=O)Nc1nc2cc(C3(O)c4ccccc4C(=O)N3c3cccc(N(C)C4CCCCC4)c3)ccc2[nH]1 (centres unmarked) [Entry 311, methyl [5-(2-{3-[cyclohexyl(methyl)amino]phenyl}-1-hydroxy-3-oxo-2,3-dihydro-1H-isoindol-1-yl)-1H-benzimidazol-2-yl]carbamate]",< 100,< 100,–,–

# From US7846959B2, “Raf modulators and methods of use” (Exelixis, Inc., priority 2004, dated 2010)
